ChEMBL document CHEMBL5465560, “Selectivity Literature for EUbOPEN Chemogenomic Library” (2024)
One block for each compound: values may come before it.

What was measured:
[1] = target: T1, Inhibitor of nuclear factor kappa-B kinase subunit alpha (Homo sapiens) (UniProt O15111); assay: Selectivity interaction (KinomeScan (DiscoverX)) EUB0001049a CHUK; conditions: at 1 µM
T1 sequence (whole entry): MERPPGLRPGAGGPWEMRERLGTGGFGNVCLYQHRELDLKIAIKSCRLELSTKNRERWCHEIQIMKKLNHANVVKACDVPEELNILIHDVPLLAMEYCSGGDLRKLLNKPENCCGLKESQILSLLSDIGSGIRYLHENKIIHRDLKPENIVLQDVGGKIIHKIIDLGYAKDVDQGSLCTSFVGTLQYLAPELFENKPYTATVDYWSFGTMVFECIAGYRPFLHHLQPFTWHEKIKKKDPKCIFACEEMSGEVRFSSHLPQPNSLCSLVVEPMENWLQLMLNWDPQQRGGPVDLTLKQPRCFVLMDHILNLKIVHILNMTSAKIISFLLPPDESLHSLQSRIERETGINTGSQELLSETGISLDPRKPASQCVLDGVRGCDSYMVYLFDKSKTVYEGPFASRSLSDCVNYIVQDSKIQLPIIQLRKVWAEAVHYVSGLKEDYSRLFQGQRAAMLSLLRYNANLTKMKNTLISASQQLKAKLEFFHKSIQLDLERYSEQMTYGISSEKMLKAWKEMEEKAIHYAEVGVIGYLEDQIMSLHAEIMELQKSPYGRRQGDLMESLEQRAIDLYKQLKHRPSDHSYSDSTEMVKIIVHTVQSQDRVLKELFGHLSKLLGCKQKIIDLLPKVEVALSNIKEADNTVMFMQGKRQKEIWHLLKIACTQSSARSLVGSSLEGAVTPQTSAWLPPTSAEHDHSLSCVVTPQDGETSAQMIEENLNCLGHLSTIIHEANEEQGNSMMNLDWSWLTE

[2] = target: T2, Serine/threonine-protein kinase 3 (Homo sapiens) (UniProt Q13188); assay: Selectivity interaction (Ambit KINOMEscan and KiNATiv profiling in Jurkat cells) EUB0000090b STK3; format: cell-based; conditions: at 1 µM
T2 sequence (whole entry): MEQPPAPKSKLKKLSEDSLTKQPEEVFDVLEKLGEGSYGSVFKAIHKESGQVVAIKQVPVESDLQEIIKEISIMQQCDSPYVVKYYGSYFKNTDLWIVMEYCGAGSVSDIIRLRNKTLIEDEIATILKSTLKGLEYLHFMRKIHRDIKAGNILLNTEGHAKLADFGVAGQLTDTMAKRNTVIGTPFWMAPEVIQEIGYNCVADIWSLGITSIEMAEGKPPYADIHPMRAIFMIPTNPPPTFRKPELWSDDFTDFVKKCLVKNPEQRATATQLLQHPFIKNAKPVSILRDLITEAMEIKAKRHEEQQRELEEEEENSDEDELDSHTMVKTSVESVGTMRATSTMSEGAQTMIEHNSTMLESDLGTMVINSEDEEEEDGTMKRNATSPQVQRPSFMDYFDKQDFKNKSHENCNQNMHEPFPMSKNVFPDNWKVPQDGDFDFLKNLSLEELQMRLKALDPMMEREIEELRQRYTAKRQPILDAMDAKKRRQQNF

[3] = target: T3, Serine/threonine-protein kinase D3 (Homo sapiens) (UniProt O94806); assay: Selectivity interaction (KinomeScan (DiscoverX)) EUB0001079a PRKD3; conditions: at 1 µM
T3 sequence (whole entry): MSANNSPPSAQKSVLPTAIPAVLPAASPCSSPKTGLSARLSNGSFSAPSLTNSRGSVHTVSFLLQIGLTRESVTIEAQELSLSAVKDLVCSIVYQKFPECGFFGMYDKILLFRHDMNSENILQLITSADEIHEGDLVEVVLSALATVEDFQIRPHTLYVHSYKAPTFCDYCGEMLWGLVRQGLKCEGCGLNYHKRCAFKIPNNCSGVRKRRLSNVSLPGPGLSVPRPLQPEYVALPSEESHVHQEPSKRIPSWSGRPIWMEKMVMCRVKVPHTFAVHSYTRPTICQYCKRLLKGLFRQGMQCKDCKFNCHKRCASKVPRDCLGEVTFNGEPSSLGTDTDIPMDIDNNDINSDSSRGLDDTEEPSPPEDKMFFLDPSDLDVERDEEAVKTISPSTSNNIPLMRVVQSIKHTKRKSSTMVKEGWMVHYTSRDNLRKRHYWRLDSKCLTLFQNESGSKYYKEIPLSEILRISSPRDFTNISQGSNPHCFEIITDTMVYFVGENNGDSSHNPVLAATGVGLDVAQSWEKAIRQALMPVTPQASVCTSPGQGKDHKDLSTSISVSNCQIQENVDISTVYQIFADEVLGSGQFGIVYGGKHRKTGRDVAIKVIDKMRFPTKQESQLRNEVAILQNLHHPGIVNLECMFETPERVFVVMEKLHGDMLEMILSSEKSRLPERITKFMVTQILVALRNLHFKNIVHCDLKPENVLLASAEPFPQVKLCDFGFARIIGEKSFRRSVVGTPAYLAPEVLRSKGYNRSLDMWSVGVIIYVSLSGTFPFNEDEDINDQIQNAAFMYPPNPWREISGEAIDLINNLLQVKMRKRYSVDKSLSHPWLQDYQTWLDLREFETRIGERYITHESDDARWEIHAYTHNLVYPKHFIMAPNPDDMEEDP

[4] = target: Fibroblast growth factor receptor 4 (Homo sapiens, UniProt P22455); assay: Selectivity interaction (Upstate Kinase Profiler service (Millipore)) EUB0000056c FGFR4; conditions: at 1 µM
Chain of Fibroblast growth factor receptor 4 (P22455 22-802 limits assumed): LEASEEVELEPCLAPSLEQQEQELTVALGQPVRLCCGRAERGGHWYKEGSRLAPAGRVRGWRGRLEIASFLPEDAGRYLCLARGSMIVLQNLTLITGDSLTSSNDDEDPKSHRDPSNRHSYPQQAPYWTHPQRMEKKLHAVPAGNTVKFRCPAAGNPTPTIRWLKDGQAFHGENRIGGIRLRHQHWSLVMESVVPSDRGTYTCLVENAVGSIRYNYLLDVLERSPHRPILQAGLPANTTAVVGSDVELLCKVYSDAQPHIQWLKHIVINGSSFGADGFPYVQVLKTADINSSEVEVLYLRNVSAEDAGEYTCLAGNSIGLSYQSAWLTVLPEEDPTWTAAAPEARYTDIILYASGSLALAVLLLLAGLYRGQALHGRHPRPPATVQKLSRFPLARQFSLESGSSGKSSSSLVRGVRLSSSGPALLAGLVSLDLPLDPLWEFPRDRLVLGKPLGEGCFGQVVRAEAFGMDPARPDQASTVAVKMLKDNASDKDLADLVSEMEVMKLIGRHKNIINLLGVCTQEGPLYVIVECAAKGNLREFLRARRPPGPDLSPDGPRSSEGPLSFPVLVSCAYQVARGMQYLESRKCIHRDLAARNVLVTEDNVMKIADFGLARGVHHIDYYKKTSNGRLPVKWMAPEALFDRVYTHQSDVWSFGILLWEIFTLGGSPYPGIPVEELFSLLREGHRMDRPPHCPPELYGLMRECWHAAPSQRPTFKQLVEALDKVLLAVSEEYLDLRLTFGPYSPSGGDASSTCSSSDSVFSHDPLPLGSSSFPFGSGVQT

[5] = target: T4, Serine/threonine-protein kinase Nek3 (Homo sapiens) (UniProt P51956); assay: Selectivity interaction (KinomeScan (DiscoverX)) EUB0001619a NEK3; conditions: at 1 µM
T4 sequence (whole entry): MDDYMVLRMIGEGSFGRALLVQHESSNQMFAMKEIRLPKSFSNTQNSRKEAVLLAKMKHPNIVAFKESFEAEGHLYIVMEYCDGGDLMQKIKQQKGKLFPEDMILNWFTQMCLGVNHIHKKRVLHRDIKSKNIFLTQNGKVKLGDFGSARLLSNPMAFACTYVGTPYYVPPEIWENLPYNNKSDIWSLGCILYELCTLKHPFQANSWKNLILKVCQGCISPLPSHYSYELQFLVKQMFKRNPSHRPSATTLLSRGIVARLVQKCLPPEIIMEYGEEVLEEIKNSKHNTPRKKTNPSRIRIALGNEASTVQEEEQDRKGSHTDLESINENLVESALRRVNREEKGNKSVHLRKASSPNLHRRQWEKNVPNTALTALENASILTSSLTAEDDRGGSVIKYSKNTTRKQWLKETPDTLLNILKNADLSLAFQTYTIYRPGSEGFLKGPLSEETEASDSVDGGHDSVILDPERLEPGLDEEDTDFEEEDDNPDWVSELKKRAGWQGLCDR

[6] = target: Serine/threonine-protein kinase MARK1 (Homo sapiens) (UniProt Q9P0L2); assay: Selectivity interaction (KinomeScan (DiscoverX)) EUB0000666a MARK1; conditions: at 10 µM
Chain of Serine/threonine-protein kinase MARK1 (Homo sapiens) (Q9P0L2 whole entry, looked up): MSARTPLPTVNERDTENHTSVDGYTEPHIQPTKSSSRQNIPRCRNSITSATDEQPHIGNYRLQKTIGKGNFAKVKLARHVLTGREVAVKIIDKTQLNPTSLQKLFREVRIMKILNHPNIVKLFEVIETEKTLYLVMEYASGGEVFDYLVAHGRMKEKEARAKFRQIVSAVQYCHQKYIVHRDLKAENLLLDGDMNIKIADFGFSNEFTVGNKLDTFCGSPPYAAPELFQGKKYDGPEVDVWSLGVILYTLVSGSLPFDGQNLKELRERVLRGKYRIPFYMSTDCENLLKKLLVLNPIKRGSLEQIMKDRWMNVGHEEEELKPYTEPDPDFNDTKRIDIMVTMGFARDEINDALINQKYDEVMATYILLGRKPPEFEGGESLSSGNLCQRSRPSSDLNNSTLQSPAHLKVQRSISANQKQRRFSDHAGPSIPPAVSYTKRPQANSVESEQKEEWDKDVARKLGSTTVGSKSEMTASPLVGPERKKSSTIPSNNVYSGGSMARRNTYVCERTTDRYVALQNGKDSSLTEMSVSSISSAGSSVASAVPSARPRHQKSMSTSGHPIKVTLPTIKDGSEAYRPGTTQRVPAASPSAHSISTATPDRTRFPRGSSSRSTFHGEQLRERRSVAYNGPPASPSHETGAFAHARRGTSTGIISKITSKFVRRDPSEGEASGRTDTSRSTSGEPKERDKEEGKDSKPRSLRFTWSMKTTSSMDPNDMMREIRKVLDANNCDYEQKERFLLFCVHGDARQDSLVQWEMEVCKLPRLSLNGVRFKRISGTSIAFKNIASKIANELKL

Structure (SMILES): COc1cc(Nc2nc(C)cc(-c3cnn4nc(OC)ccc34)n2)cc(C(F)(F)F)c1
% of control [1]: 95%

Structure (SMILES): CN(C)C/C=C/C(=O)Nc1ccc(C(=O)N2CCCC(Nc3ncc(Cl)c(-c4c[nH]c5ccccc45)n3)C2)cc1 (stereo unspecified)
% of control [2]: 92%

Structure (SMILES): Nc1cnc(N2CCc3cc(S(=O)(=O)Nc4c(F)cc(Cl)cc4F)cc(N4CCCC4=O)c32)nc1 [TP-020n]
% of control [3]: 88%

% of inhibition [4]: 8%
Structure (SMILES): Cc1ccc(-c2ccc3c(ccc4sc5c(c43)NC[C@@H](C)NC5=O)n2)cn1

Structure (SMILES): N#Cc1cccc(-c2c[nH]c3ncnc(N4CCOCC4)c23)c1
% of control [5]: 100%

Structure (SMILES): O=C(NOC[C@H](O)CO)c1ccc(F)c(F)c1Nc1ccc(I)cc1F
% of control [6]: 100%
